In the RepoRT retention time repository (doi:10.1021/acs.analchem.2c02893):

Experiment: RP, Thermo Scientific Acclaim RSLC 120 C18, 100 × 2.1 mm, 2.2 µm, 30 °C, 0.2 mL/min, estimated dead time 1.1 min; A: 90% water + 10% methanol + 0.01% formic acid + 5 mM ammonium formate, pH 3.61; B: methanol + 0.01% formic acid + 5 mM ammonium formate, pH 3.61; gradient (min/%B) 0/1 1/1 2/39 13/99.9 15/99.9 15.1/1 20.1/1
Conditions: stereoisomer not certain

Structure (SMILES)	LC retention time [min]
C#CCN1C(=O)COc2cc(F)c(N3C(=O)C4=C(CCCC4)C3=O)cc21 [Flumioxazin]	8.73
CC1(C)OC2CC3C4CC(F)C5=CC(=O)C=CC5(C)C4C(O)CC3(C)C2(C(=O)CO)O1 (centres undefined) [Flunisolide]	9.01
Nc1ccc2c(c1)C(c1ccccc1F)=NCC(=O)N2 [Flunitrazepam-7-Amino-desmethyl]	4.62
CN1C(=O)CN=C(c2ccccc2F)c2cc(N)ccc21 [Flunitrazepam- 7-Amino]	5.41
O=C1CN=C(c2ccccc2F)c2cc([N+](=O)[O-])ccc2N1 [Flunitrazepam-N-Desmethyl (Norflunitrazepam)]	7.35
CN1C(=O)CN=C(c2ccccc2F)c2cc([N+](=O)[O-])ccc21 [Flunitrazepam]	7.83
Cc1c(Nc2ncccc2C(=O)O)cccc1C(F)(F)F [Flunixin]	9.09
CC1(C)OC2CC3C4CC(F)C5=CC(=O)C=CC5(C)C4(F)C(O)CC3(C)C2(C(=O)CO)O1 (centres undefined) [Fluocinolone acetonide]	8.73
CN(C)C(=O)Nc1cccc(C(F)(F)F)c1 [Fluometuron]	7.85
CCOC(=O)COC(=O)c1cc(Oc2ccc(C(F)(F)F)cc2Cl)ccc1[N+](=O)[O-] [Fluoroglycofen-ethyl]	11.7
CC(=O)C1(O)CCC2C3CC(C)C4=CC(=O)C=CC4(C)C3(F)C(O)CC21C (centres undefined) [Fluorometholone]	8.91
CON=C(C1=NOCCO1)c1ccccc1Oc1ncnc(Oc2ccccc2Cl)c1F [Fluoxastrobin]	9.95
NCCC(Oc1ccc(C(F)(F)F)cc1)c1ccccc1 (centres undefined) [Fluoxetine-nor]	8.58
CNCCC(Oc1ccc(C(F)(F)F)cc1)c1ccccc1 (centres undefined) [Fluoxetine]	8.6
OCCN1CCN(CCC=C2c3ccccc3Sc3ccc(C(F)(F)F)cc32)CC1 [Flupentixol]	10.2
OCCN1CCN(CCCN2c3ccccc3Sc3ccc(C(F)(F)F)cc32)CC1 [Fluphenazine]	9.93
CCOC(=O)Nc1ccc(NCc2ccc(F)cc2)nc1N [Flupirtine]	7.09
O=c1c2cc(F)ccc2nc(-n2cncn2)n1-c1ccc(Cl)cc1Cl [Fluquinconazole]	10.1
O=C1CN=C(c2ccccc2F)c2cc(Cl)ccc2N1CCO [Flurazepam-2-OH-Ethyl]	8.19
O=C1CN=C(c2ccccc2F)c2cc(Cl)ccc2N1 [Flurazepam-Desalkyl]	8.74

Structure (SMILES)	LC retention time [min]
CCN(CC)CCN1C(=O)CN=C(c2ccccc2F)c2cc(Cl)ccc21 [Flurazepam]	6.61
Cn1cc(-c2ccccc2)c(=O)c(-c2cccc(C(F)(F)F)c2)c1 [Fluridone]	8.82
O=C1C(Cl)C(CCl)CN1c1cccc(C(F)(F)F)c1 (centres undefined) [Flurochloridone]	9.84
Nc1c(Cl)c(F)nc(OCC(=O)O)c1Cl [Fluroxypyr]	5.43
CC(C)C(O)(c1ccc(OC(F)(F)F)cc1)c1cncnc1 (centres undefined) [Flurprimidol]	9.62
CNC1=C(c2cccc(C(F)(F)F)c2)C(=O)C(c2ccccc2)O1 (centres undefined) [Flurtamone]	9.14
C[Si](Cn1cncn1)(c1ccc(F)cc1)c1ccc(F)cc1 [Flusilazole]	10.5
O=C1NCN(c2ccccc2)C12CCN(CCCC(c1ccc(F)cc1)c1ccc(F)cc1)CC2 [Fluspirilen]	9.19
CC(C)C(=O)Nc1ccc([N+](=O)[O-])c(C(F)(F)F)c1 [Flutamide]	11.2
CCC(=O)OC1(C(=O)SCF)C(C)CC2C3CC(F)C4=CC(=O)C=CC4(C)C3(F)C(O)CC21C (centres undefined) [Fluticasone propionate]	10.7
CC(C)Oc1cccc(NC(=O)c2ccccc2C(F)(F)F)c1 [Flutolanil]	9.52
OC(Cn1cncn1)(c1ccc(F)cc1)c1ccccc1F (centres undefined) [Flutriafol]	8.12
CC(C)C(Nc1ccc(C(F)(F)F)cc1Cl)C(=O)OC(C#N)c1cccc(Oc2ccccc2)c1 (centres undefined) [Fluvalinate (tau-)]	13.5
CC(C)n1c(C=CC(O)CC(O)CC(=O)O)c(-c2ccc(F)cc2)c2ccccc21 (centres undefined) [Fluvastatin]	10.9
COCCCCC(=NOCCN)c1ccc(C(F)(F)F)cc1 [Fluvoxamine]	8.28
CS(=O)(=O)NC(=O)c1cc(Oc2ccc(C(F)(F)F)cc2Cl)ccc1[N+](=O)[O-] [Fomesafen]	9.01
COc1cc(OC)nc(NC(=O)NS(=O)(=O)c2cc(NC=O)ccc2C(=O)N(C)C)n1 [Foramsulfuron]	7.54
O=C(Nc1ccccc1)Nc1ccnc(Cl)c1 [Forchlorfenuron]	8.53
CNC(=O)Oc1cccc(N=CN(C)C)c1 [Formetanate]	3.14
COc1ccc(CC(C)NCC(O)c2ccc(O)c(NC=O)c2)cc1 (centres undefined) [Formoterol]	4.79

Structure (SMILES)	LC retention time [min]
CCC(=O)OC(OP(=O)(CCCCc1ccccc1)CC(=O)N1CC(C2CCCCC2)CC1C(=O)O)C(C)C (centres undefined) [Fosinopril]	12.4
CCOP(=O)(SC(C)CC)N1CCSC1=O (centres undefined) [Fosthiazate]	7.73
c1coc(-c2nc3ccccc3[nH]2)c1 [Fuberidazole]	6.48
COC(=O)C(C)N(C(=O)c1ccco1)c1c(C)cccc1C (centres undefined) [Furalaxyl]	8.99
CCCCOC(=O)N(C)SN(C)C(=O)Oc1cccc2c1OC(C)(C)C2 [Furathiocarb]	12.1
O=C1OCCN1N=Cc1ccc([N+](=O)[O-])o1 [Furazolidone]	4.19
CC1(C)OC(c2ccco2)CN1C(=O)C(Cl)Cl (centres undefined) [Furilazole]	7.92
O=C(O)CCCO [GHB Fragm 87]	1.95
NCC1(CC(=O)O)CCCCC1 [Gabapentin]	3.78
COc1ccc2c3c1OC1CC(O)C=CC31CCN(C)C2 (centres undefined) [Galantamine]	2.99
CC1COCc2cc3c(cc21)C(C)(C)C(C)C3(C)C (centres undefined) [Galaxolide]	13.9
CC1COC(=O)c2cc3c(cc21)C(C)(C)C(C)C3(C)C (centres undefined) [Galaxolidone]	12
COc1ccc(CCN(C)CCCC(C#N)(c2cc(OC)c(OC)c(OC)c2)C(C)C)cc1OC (centres undefined) [Gallopamil]	7.19
CCCc1nn(C)c2c(=O)[nH]c(-c3cc(C(C)=O)ccc3OCC)nc12 [Gendenafil]	9.81
O=c1c(-c2ccc(O)cc2)coc2cc(O)cc(O)c12 [Genistein]	7.7
CNC(C)C1CCC(N)C(OC2C(N)CC(N)C(OC3OCC(C)(O)C(NC)C3O)C2O)O1 (centres undefined) [Gentamycin]	11.6
C#CC1(O)C=CC2C3CCC4=CC(=O)CCC4C3CCC21CC (centres undefined) [Gestoden]	9.46
C=C1CC23CC1(O)CCC2C12C=CC(O)C(C)(C(=O)O1)C2C3C(=O)O (centres undefined) [Gibberellic acid]	4.91
O=C(OCC(O)CO)c1ccccc1Nc1ccnc2cc(Cl)ccc12 (centres undefined) [Glaphenine]	6.63
